# Source: patent US20070161592A1, “Method of treating fear” (priority 2005, published 2007)
# Legend:
# [1] = tested on: pyramidal neurons in layer II/III of ACC slices; assay: LTP induced by pairing training, whole-cell patch-clamp recordings in ACC slices; type: cell-based, mouse
# Procedure: Experiments were performed in a recording chamber on the stage of an Axioskop 2FS microscope with infrared DIC optics for visualizing whole-cell patch clamp recordings. EPSCs were recorded from layer II-III neurons using an Axon 200B amplifier (Axon Instruments, CA) and stimulations were delivered using a bipolar tungsten stimulating electrode placed in layer V of the ACC. In hippocampal slices, EPSCs were evoked by stimulating the Schaffer collateral-commissural pathway. EPSCs were induced by repetitive stimulations at 0.02 Hz and neurons were voltage clamped at −70 mV. […] The first protocol involved paired presynaptic 80 pulses at 2 Hz with postsynaptic depolarization at +30 mV (referred to as pairing training). The second involved paired 3 presynaptic stimuli that caused 3 EPSPs (10 ms ahead) with 3 postsynaptic APs at 30 Hz, paired 15 times every 5 s (named as EPSPs-APs protocol). The third involved theta-burst stimulation (5 trains of burst with 4 pulses at 100 Hz, at 200 ms interval; repeated 4 times at intervals of 10 s; named as TBS). The NMDAR-mediated component of EPSCs was pharmacologically isolated in Mg^2+-free ACSF containing: CNQX (20 μM), glycine (1 μM) and picrotoxin (100 μM). […] Neurons were voltage clamped at −60 mV and NMDARs-mediated EPSCs were evoked at 0.05 Hz. Picrotoxin (100 μM) was always present to block GABAA receptor-mediated inhibitory synaptic currents. The access resistance was 15-30 MΩ and was monitored throughout the experiment. […] Results are expressed as means±SEM. Statistical comparisons were performed using the Student t-test.
# Whole-cell patch-clamp recordings were conducted in visually identified pyramidal neurons in layer II/III of ACC slices. Pyramidal neurons were identified by injecting depolarized currents into neurons to induce action potentials. […] Pyramidal neurons were also identified based on the pyramid shape of their somata by putting Lucifer yellow into the intracellular solution (FIG. 1A).
# NMDAR-mediated signaling = conditions: intra-hippocampal injections; cited from earlier work
# NR1/NR2A = conditions: cited from earlier work
# NR1/NR2B = conditions: cited from earlier work
# adult ACC neurons [2] = assay: LTP induced by theta-burst stimulation (TBS) in ACC slices; type: cell-based, mouse; conditions: 0.4 μM
# Procedure: (§1) Coronal brain slices ([…]) from 6-8-week-old C57BL/6 mice, containing ACC or hippocampus, were prepared using standard methods (Wei et al., 2001). Slices were transferred to a submerged recovery chamber containing oxygenated (95% O2 and 5% CO2) artificial cerebrospinal fluid (ACSF) (in mM: 124 NaCl, 4.4 KCl, 2 CaCl2, 1 MgSO4, 25 NaHCO3, 1 NaH2PO4, 10 glucose) at room temperature for at least 1 h.
# (§2) Experiments were performed in a recording chamber on the stage of an Axioskop 2FS microscope with infrared DIC optics for visualizing whole-cell patch clamp recordings. EPSCs were recorded from layer II-III neurons using an Axon 200B amplifier (Axon Instruments, CA) and stimulations were delivered using a bipolar tungsten stimulating electrode placed in layer V of the ACC. In hippocampal slices, EPSCs were evoked by stimulating the Schaffer collateral-commissural pathway. EPSCs were induced by repetitive stimulations at 0.02 Hz and neurons were voltage clamped at −70 mV. The recording pipettes (3-5 MΩ) were filled with solution containing (mM) 145 K-gluconate, 5 NaCl, 1 MgCl2, 0.2 EGTA, 10 HEPES, 2 Mg-ATP, and 0.1 Na3-GTP (adjusted to pH 7.2 with KOH). After obtaining stable EPSCs for 10 min, three kinds of LTP induction paradigms were used within 12 min after establishing the whole-cell configuration to prevent wash out effect on LTP induction (Tsvetkov et al., 2002). The first protocol involved paired presynaptic 80 pulses at 2 Hz with postsynaptic depolarization at +30 mV (referred to as pairing training). The second involved paired 3 presynaptic stimuli that caused 3 EPSPs (10 ms ahead) with 3 postsynaptic APs at 30 Hz, paired 15 times every 5 s (named as EPSPs-APs protocol). The third involved theta-burst stimulation (5 trains of burst with 4 pulses at 100 Hz, at 200 ms interval; repeated 4 times at intervals of 10 s; named as TBS). The NMDAR-mediated component of EPSCs was pharmacologically isolated in Mg^2+-free ACSF containing: CNQX (20 μM), glycine (1 μM) and picrotoxin (100 μM). The patch electrodes contained (in mM) 102 cesium gluconate, 5 TEA-chloride, 3.7 NaCl, 11 BAPTA, 0.2 EGTA, 20 HEPES, 2 MgATP, 0.3 NaGTP, and 5 QX-314 chloride (adjusted to pH 7.2 with CsOH). Neurons were voltage clamped at −60 mV and NMDARs-mediated EPSCs were evoked at 0.05 Hz. Picrotoxin (100 μM) was always present to block GABAA receptor-mediated inhibitory synaptic currents. The access resistance was 15-30 MΩ and was monitored throughout the experiment. Data were discarded if access resistance changed by more than 15% during an experiment. Results are expressed as means±SEM. Statistical comparisons were performed using the Student t-test. […]
# [3] = tested on: NMDAR-mediated currents in the ACC; assay: NMDAR-mediated EPSCs in the ACC; type: cell-based, mouse
# Procedure: as §1
# (§3) Experiments were performed in a recording chamber on the stage of an Axioskop 2FS microscope with infrared DIC optics for visualizing whole-cell patch clamp recordings. EPSCs were recorded from layer II-III neurons using an Axon 200B amplifier (Axon Instruments, CA) and stimulations were delivered using a bipolar tungsten stimulating electrode placed in layer V of the ACC. In hippocampal slices, EPSCs were evoked by stimulating the Schaffer collateral-commissural pathway. EPSCs were induced by repetitive stimulations at 0.02 Hz and neurons were voltage clamped at −70 mV. The recording pipettes (3-5 MΩ) were filled with solution containing (mM) 145 K-gluconate, 5 NaCl, 1 MgCl2, 0.2 EGTA, 10 HEPES, 2 Mg-ATP, and 0.1 Na3-GTP (adjusted to pH 7.2 with KOH). After obtaining stable EPSCs for 10 min, three kinds of LTP induction paradigms were used within 12 min after establishing the whole-cell configuration to prevent wash out effect on LTP induction (Tsvetkov et al., 2002). The first protocol involved paired presynaptic 80 pulses at 2 Hz with postsynaptic depolarization at +30 mV (referred to as pairing training). The second involved paired 3 presynaptic stimuli that caused 3 EPSPs (10 ms ahead) with 3 postsynaptic APs at 30 Hz, paired 15 times every 5 s (named as EPSPs-APs protocol). The third involved theta-burst stimulation (5 trains of burst with 4 pulses at 100 Hz, at 200 ms interval; repeated 4 times at intervals of 10 s; named as TBS). The NMDAR-mediated component of EPSCs was pharmacologically isolated in Mg^2+-free ACSF containing: CNQX (20 μM), glycine (1 μM) and picrotoxin (100 μM). The patch electrodes contained (in mM) 102 cesium gluconate, 5 TEA-chloride, 3.7 NaCl, 11 BAPTA, 0.2 EGTA, 20 HEPES, 2 MgATP, 0.3 NaGTP, and 5 QX-314 chloride (adjusted to pH 7.2 with CsOH). Neurons were voltage clamped at −60 mV and NMDARs-mediated EPSCs were evoked at 0.05 Hz. Picrotoxin (100 μM) was always present to block GABAA receptor-mediated inhibitory synaptic currents. The access resistance was 15-30 MΩ and was monitored throughout the experiment. Data were discarded if access resistance changed by more than 15% during an experiment. Results are expressed as means±SEM. Statistical comparisons were performed using the Student t-test.
# (§4) One possible mechanism is that NR2B-containing receptors may contribute more to total NMDA currents in ACC synapses than in hippocampal synapses. […] Application of 0.1 μM or 0.4 μM NVP-AAM077 depressed total NMDAR-mediated currents by 59.0±4.3% (n=5) and 63.2±1.7% (n=6) in the ACC respectively (FIG. 5). On the other hand, application of 0.3 μM or 3 μM Ro25-6981 attenuated total NMDAR-mediated currents by 18.0±1.9% (n=5) and 18.1±3.4% (n=7) in the ACC respectively, showing that 0.3 μM Ro25-6981 was sufficient to block the NR2B-mediated currents (FIG. 5). This experiment was repeated in hippocampal CA1 neurons. […] However, unlike in the ACC, application of 0.3 μM Ro25-6981 alone potentiated, rather than blocked, total NMDAR-mediated currents by 51.3±16.4% in the hippocampus (FIG. 5).
# The relative percentages of NR2A- and NR2B-mediated currents were determined by applying specific antagonists, NVP-AAM077 (0.4 μM) and Ro25-6981 (0.3 μM). The concentrations used here were based on the results from FIG. 5 and a recent study performed in the hippocampus (Liu et al., 2004). Application of NVP-AAMO77 depressed total NMDAR-mediated currents by 63.2±1.7% and the addition of Ro25-6981 to the same neuron further reduced currents by 13.7±1.4% (n=6) in the ACC (FIG. 6). […]
# adult ACC neurons [4] = assay: LTP induced by EPSPs-APs protocol in ACC slices; type: cell-based, mouse; conditions: 0.4 μM
# Procedure: as §1, §2
# [5] = tested on: NMDAR-mediated currents in the hippocampus; assay: NMDAR-mediated EPSCs in hippocampal CA1 neurons; type: cell-based, mouse; conditions: for depression of total NMDAR-mediated currents: hippocampal CA1 neurons
# Procedure: as §1, §3, §4
# The same experiment was repeated in the hippocampus.
# [6] = FIG. 1E/F, BAPTA in the intracellular solution
smiles,measurement,setting,value
O=C(O)CN(CC(=O)O)c1ccccc1OCCOc1ccccc1N(CC(=O)O)CC(=O)O [BAPTA],"synaptic responses after pairing training (LTP), % of baseline",[1]; 11 mM BAPTA in the pipette solution,106.1±10.3%
same,effect on LTP induced by pairing training,[1]; [6],completely blocked
C[C@]12N[C@H](Cc3ccccc31)c1ccccc12 [MK-801],contextual freezing,NMDAR-mediated signaling,reduced contextual freezing
NC(CCCP(=O)(O)O)C(=O)O (centres unmarked) [AP-5],"synaptic responses after pairing training (LTP), % of baseline",[1]; AP-5 50 μM,97.8±5.7%
same,effect on LTP induced by pairing training,[1]; [6],completely blocked
CC(C(O)c1ccc(O)cc1)N1CCC(Cc2ccccc2)CC1 (centres unmarked) [ifenprodil],IC50,NR1/NR2A,146000 nM
same,IC50,NR1/NR2B,340 nM
same,"synaptic responses after pairing training (LTP), % of baseline",[1]; 3 μM,128.1±7.4%
same,effect on LTP induced by pairing training,"[1]; 3 μM, FIG. 3",partially depressed
C[C@H](NC(c1cccc2[nH]c(=O)c(=O)[nH]c12)P(=O)(O)O)c1ccc(Br)cc1 (some centres unmarked) [NVP-AAM077],IC50,NR1/NR2A,14 nM
same,"LTP after TBS, % of baseline",adult ACC neurons [2],97.0±13.4%
same,effect on LTP induced by TBS,adult ACC neurons [2]; FIG. 4F,blocked
same,IC50,NR1/NR2B,1800 nM
same,"synaptic responses after pairing training (LTP), % of baseline",[1]; 0.1 μM,134.9±6.9%
same,effect on LTP induced by pairing training,"[1]; 0.1 μM, FIG. 3",partially depressed
same,"synaptic responses after pairing training (LTP), % of baseline",[1]; 0.4 μM,131.6±11.9%
same,effect on LTP induced by pairing training,"[1]; 0.4 μM, FIG. 3",partially depressed
same,depression of total NMDAR-mediated currents,[3]; 0.1 μM,59.0±4.3%
same,depression of total NMDAR-mediated currents,[3]; 0.4 μM NVP-AAM077 added after first applying 0.3 μM Ro25-6981,64.2±3.0%
same,depression of total NMDAR-mediated currents,"[3]; 0.4 μM, applied alone or first",63.2±1.7%
same,effect on total NMDAR-mediated currents,"[3]; bath application of different doses, FIG. 5",depressed
same,"potentiation after EPSPs-APs protocol, % of baseline",adult ACC neurons [4],102.0±11.5%
same,effect on LTP induced by EPSPs-APs protocol,adult ACC neurons [4]; FIG. 4C,blocked
same,depression of total NMDAR-mediated currents,[5]; 0.1 μM,54.4±3.2%
same,depression of total NMDAR-mediated currents,[5]; 0.4 μM,73.1±1.7%
same,effect on total NMDAR-mediated currents,"[5]; hippocampus, bath application, FIG. 5",depressed
